Source: PubChem BioAssay (NCI)
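Briefly, cells in 96-well plates were exposed to five compound concentrations for 48 h, and endpoints were estimated by linear interpolation. GI50 is the concentration that inhibits growth by half. Definition used: TGI = concentration required for complete inhibition of growth.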

Legend:
Test in all cases: DTP human tumour cell line panel, 48 h
[1] = system: 786-0 renal
[2] = system: A549 NSCLC
[3] = system: ACHN renal
[4] = system: BT-549 breast
[5] = system: CAKI-1 renal
[6] = system: COLO 205 colon
[7] = system: DU-145 prostate
[8] = system: EKVX NSCLC
[9] = system: HCT-116 colon
[10] = system: HCT-15 colon
[11] = system: HL-60(TB) leukemia
[12] = system: HOP-62 NSCLC
[13] = system: HS 578T breast
[14] = system: HT29 colon
[15] = system: IGROV1 ovarian
[16] = system: K-562 leukemia
[17] = system: KM12 colon
[18] = system: LOX IMVI melanoma
[19] = system: MCF7 breast
[20] = system: MDA-MB-231 breast
[21] = system: MDA-MB-435
[22] = system: MOLT-4 leukemia
[23] = system: NCI-H226 lung
[24] = system: NCI-H23 lung
[25] = system: NCI-H460 lung
[26] = system: NCI-H522 lung
[27] = system: NCI/ADR-RES ovarian
[28] = system: OVCAR-5 ovarian
[29] = system: OVCAR-8 ovarian
[30] = system: PC-3 prostate
[31] = system: RPMI-8226 leukemia
[32] = system: RXF 393 renal
[33] = system: SF-268 CNS
[34] = system: SF-295 CNS
[35] = system: SF-539 CNS
[36] = system: SK-MEL-2 melanoma
[37] = system: SK-MEL-28 melanoma
[38] = system: SK-MEL-5 melanoma
[39] = system: SN12C renal
[40] = system: SNB-19 CNS
[41] = system: SNB-75 CNS
[42] = system: SR leukemia
[43] = system: SW-620 colon
[44] = system: TK-10 renal
[45] = system: U251 CNS
[46] = system: UACC-257 melanoma
[47] = system: UACC-62 melanoma
[48] = system: UO-31 renal

SMILES: CN(C)/[N+]([O-])=N/Oc1cc(Nc2ccc(C(=O)O)cc2)c([N+](=O)[O-])cc1[N+](=O)[O-]
- GI50 [1]: 22.2 µM
- TGI [1]: 55.3 µM
- GI50 [2]: 75 µM
- TGI [2]: > 100 µM
- GI50 [3]: 26.7 µM
- TGI [3]: 62.4 µM
- GI50 [4]: 18.5 µM
- TGI [4]: 34.6 µM
- GI50 [5]: 22.1 µM
- TGI [5]: 51.7 µM
- GI50 [6]: 28.2 µM
- TGI [6]: 63.5 µM
- GI50 [7]: 18 µM
- TGI [7]: 35.7 µM
- GI50 [8]: 20.1 µM
- TGI [8]: 46.8 µM
- GI50 [9]: 20.9 µM
- TGI [9]: 41.6 µM
- GI50 [10]: 19.6 µM
- TGI [10]: 36.4 µM
- GI50 [11]: 18.5 µM
- TGI [11]: 58.8 µM
- GI50 [12]: 18 µM
- TGI [12]: 35 µM
- GI50 [13]: 21.7 µM
- TGI [13]: 57.3 µM
- GI50 [14]: 44.2 µM
- TGI [14]: > 100 µM
- GI50 [15]: 14.9 µM
- TGI [15]: 34.4 µM
- GI50 [16]: 38.2 µM
- TGI [16]: > 100 µM
- GI50 [17]: 14.6 µM
- TGI [17]: 30.8 µM
- GI50 [18]: 19 µM
- TGI [18]: 33.6 µM
- GI50 [19]: 25.2 µM
- TGI [19]: 69.7 µM
- GI50 [20]: 17 µM
- TGI [20]: 31.3 µM
- GI50 [21]: 19.8 µM
- TGI [21]: 39.2 µM
- GI50 [22]: 53.3 µM
- TGI [22]: > 100 µM
- GI50 [23]: 27.4 µM
- TGI [23]: 70.4 µM
- GI50 [24]: 20.3 µM
- TGI [24]: 40.9 µM
- GI50 [25]: 32.2 µM
- TGI [25]: > 100 µM
- GI50 [26]: 28.5 µM
- TGI [26]: > 100 µM
- GI50 [27]: 29.8 µM
- TGI [27]: > 100 µM
- GI50 [28]: 38.5 µM
- TGI [28]: > 100 µM
- GI50 [29]: 22.1 µM
- TGI [29]: 52.1 µM
- GI50 [30]: 26.5 µM
- TGI [30]: 53.1 µM
- GI50 [31]: 23.6 µM
- TGI [31]: > 100 µM
- GI50 [32]: 22.8 µM
- TGI [32]: 47.8 µM
- GI50 [33]: 20.4 µM
- TGI [33]: 40.1 µM
- GI50 [34]: 16.9 µM
- TGI [34]: 34 µM
- GI50 [35]: 23.5 µM
- TGI [35]: 53.6 µM
- GI50 [36]: 17.1 µM
- TGI [36]: 39 µM
- GI50 [37]: 30.7 µM
- TGI [37]: 57.5 µM
- GI50 [38]: 20.2 µM
- TGI [38]: 41.3 µM
- GI50 [39]: 18.6 µM
- TGI [39]: 33.6 µM
- GI50 [40]: 18.2 µM
- TGI [40]: 35.3 µM
- GI50 [41]: 25.7 µM
- TGI [41]: 52.1 µM
- GI50 [42]: 51.3 µM
- TGI [42]: > 100 µM
- GI50 [43]: 45.4 µM
- TGI [43]: > 100 µM
- GI50 [44]: 18.9 µM
- TGI [44]: 72.7 µM
- GI50 [45]: 19.3 µM
- TGI [45]: 33.5 µM
- GI50 [46]: 19.4 µM
- TGI [46]: 35.5 µM
- GI50 [47]: 17.9 µM
- TGI [47]: 32.2 µM
- GI50 [48]: 25.6 µM
- TGI [48]: 67.3 µM
